Patent publication US9464093B2, “Substituted imidazo[4',5':4,5]cyclopenta[1,2-e]pyrrolo[1,2-a]pyrazines and oxazolo[4',5':4,5]cyclopenta[1,2-e]pyrrolo[1,2-a]pyrazines for treating brain cancer” (Mayo Foundation for Medical Education and Research, priority 2012, dated 2016)
“Also recorded” adds a separate entry of the source.

Columns and labels:
OCI-LY10 = experiment: Cell proliferation assay OCI-LY10 (Example 6); assay type: cell-based; conditions: cells counted on the sixth day
Description: In-vitro assays were performed to assess the cytotoxic impact of AA analogues on breast cancer cell lines (MB-468, MB-453, and T47D), lymphoma cell lines (Raji and OCI-LY10), and glioblastoma multiforme cell line (U87). The three breast cancer cell lines represent three subtypes of breast cancer: triple-negative (MB-468), Her2-positive (MB-453), and hormone receptor positive (T47D).
The IC50 values obtained for each compound represents the concentration of the tested compound that is needed to decrease the cancer cell count by 50%. Cancer cells were seeded in triplicate at 50,000 cells per well of a 24-well plate in 0.5 ml medium. […] Cells were harvested and counted on the sixth day using a Beckman Coulter counter.

Raji lymphoma cells [1] = experiment: Intracerebral dissemination of lymphoma cells (CD20 IHC); assay type: in vivo, athymic mice
Text: Paraffin sections (10 μm thick) were fixed and mounted onto glass slides, blocked, and immunostained with antibody to CD20 to identify B lymphoma cells.
Murine brains harvested from the in-vivo experiments to assess the pre-clinical therapeutic activity of AA were studied by IHC. CD20-positive lymphoma cells were counted in the cerebral hemisphere contralateral to the tumor implantation side for dissemination in lateral, anterior, and posterior directions by ScanScope XT slide scanner and image analysis system (Aperio Spectrum, Vista, Calif.). One-way ANOVA was used to determine the statistical significance of the difference between the treated group and untreated control group.

osteopontin = experiment: Osteopontin secretion ELISA in Raji cells; assay type: cell-based, human; conditions: culture medium, four days
Description: 10^5 Raji lymphoma cells were seeded in 5 ml media in 6-well plates in triplicate and were grown for four days. Cells were pelleted and the media was collected for analysis. Duplicate four hundred microliters of media supernatant were assayed for osteopontin by ELISA using Quantikine human osteopontin ELISA kit (R&D Systems, Inc., Minneapolis, Minn.). Statistical analysis was performed using two-tailed Student's T-Test.

NFkB signaling = experiment: In vivo NFkB signaling of Raji cells implanted in murine brain (BLI); parameters: species or system athymic mice; conditions: 2.5 mg/kg and 5 mg/kg intraperitoneally the day after implantation
Description: An in-vivo experiment was also performed to assess impact of Agelastatin A on NFkB signaling in Raji cells implanted inside the murine brain. In serum free medium, Raji cells were transfected with NFkB reporter system. 25,000 cells were intracerebrally injected into athymic mice. […] Bioluminescence imaging (BLI) of NFkB activity of intracerebral Raji lymphoma cells were measured on day 4 post intracerebral implantation.

Raji lymphoma cells [2] = experiment: Matrigel invasion assay; assay type: cell-based; conditions: 1 hour pre-treatment with log dilutions
Description: Invasion assays were performed in triplicate using BD Biocoat Matrigel Invasion Chamber (BD Biosciences: Sparks, Md.) according to manufacturer's instructions (8-μm pore-size). Five percent serum was used as a chemoattractant in the bottom chamber. […] Viability of Raji cells was ascertained by Trypan blue test after the treatment with AA. Statistical analysis was performed using two-tailed Student's T-Test.

[3] = CNS pharmacokinetic study in mice (microdialysis, CE-UV); assay type: in vivo, C57BL/6J mice; conditions: 2.5 mg/kg i.p.
Description: The total of 90 male wild type C57BL/6J mice were used in this study. C57BL/6J mice were approximately 2 months of age and weighed 20˜25 g. All mice were housed in a temperature-controlled room ([…]) with a 12:12 light dark cycle (lights on at 0600). Purina 5001 Rodent Chow and tap water were available ad libitum at all times. Mouse use was approved by Mayo Foundation Institutional Animal Use and Care Committee (IACUC) and was consistent with NIH Guide for the Care and Use of Laboratory Animals. Agelastatin A was synthesized by Professor Takehiko Yoshimitsu at Graduate School of Pharmaceutical Sciences, Osaka University, Osaka, Japan. Professor Yoshimitsu has described details on the synthesis of this compound. Purity as determined by NMR spectra is >99%.
A total of five mice were used in microdialysis experiments. On the day of surgery, mice were anesthetized with gasiform isoflurane (1% isoflurane in a mixture of 20% oxygen and 80% nitrogen gas) and immobilized in a stereotaxic frame (KOPF Instruments, Tujunga, Calif.). […]
Briefly, the capillaries were preconditioned with 1 M sodium hydroxide for 2 min, water for 2 min and running buffer [100 mmol/1 solution of ammonium acetate (adjusted to pH 3.1 with acetic acid)-acetonitrile (50:50, v/v)] for 3 min. […] CNS penetration was determined as the ratio of CSF and blood area under the curve (AUC).

## CN1C(=O)N[C@H]2[C@@H]3NC(=O)c4ccc(Cl)n4[C@@H]3C[C@]21O [CAA, chloroagelastatin A]
OCI-LY10; Homo sapiens, OCI-Ly10
  IC50: 102 nM

## CCN1C(=O)N[C@H]2[C@@H]3NC(=O)c4cc(Cl)c(Cl)n4[C@@H]3C[C@]21O [DCEAA, dichloroethylagelastatin A]
OCI-LY10; Homo sapiens, OCI-Ly10
  IC50: 429 nM

## CCN1C(=O)N[C@H]2[C@@H]3NC(=O)c4ccc(Cl)n4[C@@H]3C[C@]21O [CEAA, chloroethylagelastatin A]
OCI-LY10; Homo sapiens, OCI-Ly10
  IC50: 119 nM

## CN1C(=O)N[C@H]2[C@@H]3NC(=O)c4ccc(Br)n4[C@@H]3C[C@]21O [AA, agelastatin A, reference compound]
Raji lymphoma cells [1]; T2 (2.5 mg/kg i.p.) and T3 (5 mg/kg i.p.) groups
  lateral dissemination of lymphoma cells: decreased lateral dissemination of lymphoma cells
Raji lymphoma cells [1]; all the treatment groups (1, 2.5, 5 mg/kg i.p.)
  lymphoma cell dissemination in the anterior and posterior direction: Dissemination of lymphoma cells was decreased
Raji lymphoma cells [1]; contralateral brain hemisphere, CD20 IHC
  dissemination of lymphoma cells in the brain: significantly decreased dissemination of lymphoma cells in the brain; also recorded: decreases the dissemination of Raji lymphoma cells inside the brain
osteopontin
  OPN secretion by Raji cells (ELISA): significantly decreased secretion of osteopontin; also recorded: decreases OPN secretion
NFkB signaling
  NFkB signaling activity of Raji cells implanted in the murine brain (BLI): can impact the molecular signaling activity (NFkB signaling pathway) in a brain tumor; also recorded: decreased the NFkB signaling activity
OCI-LY10
  IC50: 162 nM
Raji lymphoma cells [2]
  Raji lymphoma cell invasion (Matrigel): significantly decreased invasiveness; also recorded: blocks Raji lymphoma cell invasion
[3]
  penetration into brain and eye tissue compartments: shown to penetrate into the brain and eye tissue compartments; also recorded: can penetrate the brain and eye tissue compartments
